Measurements taken from patent publication US20110053770A1, “SUBSTITUTED AMINOTHIAZOLES AND THEIR USE AS FUNGICIDES” (BAYER CROPSCIENCE AG, priority 2009, published 2011).
Read-outs that look alike come from different tables or passages of the source. Marks after values point to notes of the source that are not given here.

Test: logP by HPLC on reversed-phase columns (C 18), EEC directive 79/831 Annex V.A8
Format: physicochemical
Conditions: for chromatographic logP: reversed-phase HPLC column (C 18)
Experimental: Calibration was carried out using unbranched alkan-2-ones (having from 3 to 16 carbon atoms) with known logP values (the logP values were determined by the retention times using linear interpolation between two successive alkanones).

[1] = LC-MS, acidic range, pH 2.7, 0.1% aqueous formic acid and acetonitrile
[2] = LC-MS, neutral range, pH 7.8, 0.001 molar aqueous ammonium bicarbonate and acetonitrile
[3] = acidic range, pH 2.3, 0.1% aqueous phosphoric acid and acetonitrile
[4] = LC-MS, neutral range, pH 7.8, 0.001 molar aqueous ammonium bicarbonate and acetonitrile, read-out: log P (***)
[5] = acidic range, pH 2.3, 0.1% aqueous phosphoric acid and acetonitrile, read-out: log P (*)

SMILES	log P (**) [1]	log P (***) [2]	log P (*) [3]	chromatographic logP [4]	chromatographic logP [5]	chromatographic logP (LC-MS, acidic range, pH 2.7, 0.1% aqueous formic acid and acetonitrile, read-out: log P (**))
c1ccc(Oc2ccccc2-c2csc(N=C3CCCN3)n2)cc1 [compound 98, 4-(2-phenoxyphenyl)-N-[(2E/Z)-pyrrolidin-2-ylidene]-1,3-thiazole-2-amine]	2.05	3.54	1.92	–	–	–
c1sc(N=C2CCCCN2)nc1CC1CC1 [compound 72, 4-(cyclopropylmethyl)-N-[(2E/Z)-piperidin-2-ylidene]-1,3-thiazole-2-amine]	–	2.73	1.07	–	–	–
Fc1ccc(Oc2ccccc2-c2csc(N=C3CCCN3)n2)c(F)c1 [compound 102, 4-[2-(2,4-difluorophenoxy)phenyl]-N-[(2E/Z)-pyrrolidin-2-ylidene]-1,3-thiazole-2-amine]	–	3.55	1.98	–	–	–
Clc1ccc(-c2csc(N=C3CCCCN3)n2)cc1Cl [compound 52, 4-(3,4-dichlorophenyl)-N-[(2E/Z)-piperidin-2-ylidene]-1,3-thiazole-2-amine]	–	–	–	3.93	1.68	–
CC(=O)N1CCCCC1=Nc1nc(-c2ccc(F)c(Cl)c2)cs1 [compound 41, 1-[(2E/Z)-2-{[4-(3-chloro-4-fluorophenyl)-1,3-thiazol-2-yl]imino}piperidin-1-yl]ethanone]	3.88**; 3.88***; 3.88*	3.88**; 3.88***; 3.88*	3.88**; 3.88***; 3.88*	–	–	–
Clc1ccccc1-c1csc(N=C2CCCCN2)n1 [compound 20, 4-(2-chlorophenyl)-N-[(2E/Z)-piperidin-2-ylidene]-1,3-thiazole-2-amine]	1.63	3.19	1.63	–	–	–
Clc1ccc(-c2csc(N=C3CCCN3)n2)cc1 [compound 96, 4-(4-chlorophenyl)-N-[(2E/Z)-pyrrolidin-2-ylidene]-1,3-thiazole-2-amine]	1.57**	–	–	–	–	–
CC(=O)N1CCCCC1=Nc1nc(-c2cccc(C(F)(F)F)c2F)cs1 [compound 38, 1-[(2E/Z)-2-({4-[2-fluoro-3-(trifluoromethyl)phenyl]-1,3-thiazol-2-yl}imino)piperidin-1-yl]ethanone]	4.25	4.23	4.25	–	–	–
Clc1ccc(Oc2ccccc2-c2csc(N=C3CCCCN3)n2)c(Cl)c1 [compound 11, 4-[2-(2,4-dichlorophenoxy)phenyl]N-[(2E/Z)-piperidin-2-ylidene]-1,3-thiazole-2-amine]	2.42	4.84	2.42	–	–	–
Clc1ccc(-c2csc(N=C3CCCCN3)n2)c(Cl)c1 [compound 4, 4-(2,4-dichlorophenyl)-N-[(2E/Z)-piperidin-2-ylidene]-1,3-thiazole-2-amine]	1.8**	–	–	–	–	–
Clc1ccccc1Cc1csc(N=C2CCCCN2)n1 [compound 69, 4-(2-chlorobenzyl)-N-[(2E/Z)-piperidin-2-ylidene]-1,3-thiazole-2-amine]	–	–	1.39*	–	–	–
COc1ccc(-c2cccc(-c3csc(N=C4CCCCN4)n3)c2)cc1 [compound 68, 4-(4′-methoxybiphenyl-3-yl)-N-[(2E/Z)-piperidin-2-ylidene]-1,3-thiazole-2-amine]	–	3.88	1.85	–	–	–
Fc1ccc(Oc2ccccc2-c2csc(N=C3CCCCN3)n2)c(F)c1 [compound 7, 4-[2-(2,4-difluorophenoxy)phenyl]-N-[(2E/Z)-piperidin-2-ylidene]-1,3-thiazole-2-amine]	2.11	3.9	2.11	–	–	–
Clc1ccc(-c2csc(N=C3CCCCN3)n2)cc1 [compound 2, 4-(4-chlorophenyl)-N-[(2E/Z)-piperidin-2-ylidene]-1,3-thiazole-2-amine]	1.7**	–	–	–	–	–
FC(F)(F)c1cc(Oc2ccccc2-c2csc(N=C3CCCCN3)n2)ccc1Cl [compound 14, 4-{2-[4-chloro-3-(trifluoromethyl)phenoxy]phenyl}-N-[(2E/Z)-piperidin-2-ylidene]-1,3-thiazole-2-amine]	2.58	4.9	2.58	–	–	–
Cc1sc(N=C2CCCCN2)nc1-c1ccc(Cl)cc1 [compound 31, 4-(4-chlorophenyl)-5-methyl-N-[(2E/Z)-piperidin-2-ylidene]-1,3-thiazole-2-amine]	1.84	3.72	1.84	–	–	–
Clc1ccc(-c2csc(N=C3CCCCN3)n2)cc1 [compound 103, 4-(4-chlorophenyl)-N-[(2E/Z)-piperidin-2-ylidene]-1,3-thiazole-2-amine]	1.68	3.47	1.68	–	–	–

SMILES	log P (**) [1]	log P (***) [2]	log P (*) [3]	chromatographic logP [4]	chromatographic logP [5]	chromatographic logP (LC-MS, acidic range, pH 2.7, 0.1% aqueous formic acid and acetonitrile, read-out: log P (**))
COc1cccc(-c2csc(N=C3CCCCN3)n2)c1 [compound 57, 4-(3-methoxyphenyl)-N-[(2E/Z)-piperidin-2-ylidene]-1,3-thiazole-2-amine]	–	2.76	1.19	–	–	–
CC(=O)N1CCCCC1=Nc1nc(-c2ccccc2Oc2ccccc2)cs1 [compound 17, 1-[(2E/Z)-2-{[4-(2-phenoxyphenyl)-1,3-thiazol-2-yl]imino}piperidin-1-yl]ethanone]	4.41	4.39	4.41	–	–	–
FC(F)(F)c1cccc(-c2csc(N=C3CCCCN3)n2)c1Cl [compound 8, 4-[2-chloro-3-(trifluoromethyl)phenyl]-N-[(2E/Z)-piperidin-2-yl-idene]-1,3-thiazole-2-amine]	1.94	3.72	–	–	–	–
Brc1cccc(Oc2ccccc2-c2csc(N=C3CCCCN3)n2)c1 [compound 87, 4-[2-(3-bromophenoxy)phenyl]-N-[(2E/Z)-piperidin-2-ylidene]-1,3-thiazole-2-amine]	–	4.71	2.19	–	–	–
Cc1ccc(Oc2ccccc2-c2csc(N=C3CCCCN3)n2)c(C)c1 [compound 1, 4-[2-(2,4-dimethylphenoxy)phenyl]-N-[(2E/Z)-piperidin-2-ylidene]-1,3-thiazole-2-amine]	2.66	4.9	–	–	–	–
CC(=O)N1CCCCC1=Nc1nc(-c2cccc(F)c2F)c(C)s1 [compound 43, 1-[(2E/Z)-2-{[4-(2,3-difluorophenyl)-5-methyl-1,3-thiazol-2-yl]imino}piperidin-1-yl]ethanone]	3.37**; 3.37***; 3.37*	3.37**; 3.37***; 3.37*	3.37**; 3.37***; 3.37*	–	–	–
Clc1cccc(-c2csc(N=C3CCCCN3)n2)c1 [compound 59, 4-(3-chlorophenyl)-N-[(2E/Z)-piperidin-2-ylidene]-1,3-thiazole-2-amine]	1.37**	–	–	–	–	–
CC(C)(C)c1ccc(-c2csc(N=C3CCCCN3)n2)cc1 [compound 32, 4-(4-tert-butylphenyl)-N-[(2E/Z)-piperidin-2-ylidene]-1,3-thiazole-2-amine]	2.2	4.35	2.2	–	–	–
c1ccc(Cc2ccc(-c3csc(N=C4CCCCN4)n3)cc2)cc1 [compound 94, 4-(4-benzylphenyl)-N-[(2E/Z)-piperidin-2-ylidene]-1,3-thiazole-2-amine]	2.07	4.28	–	–	–	–
Clc1ncccc1-c1csc(N=C2CCCCN2)n1 [compound 53, 4-(2-chloropyridin-3-yl)-N-[(2E/Z)-piperidin-2-ylidene]-1,3-thiazole-2-amine]	–	–	0.71*	–	–	–
FC(F)(F)c1cc(-c2csc(N=C3CCCCN3)n2)cc(C(F)(F)F)c1 [compound 6, 4-[3,5-bis(trifluoromethyl)phenyl]-N-[(2E/Z)-piperidin-2-ylidene]-1,3-thiazole-2-amine]	2.23	4.36	–	–	–	–
CC(=O)N1CCCCC1=Nc1nc(-c2ccc(Cl)cc2Cl)cs1 [compound 35, 1-[(2E/Z)-2-{[4-(2,4-dichlorophenyl)-1,3-thiazol-2-yl]imino}piperidin-1-yl]ethanone]	–	–	–	4.33	4.33	4.33
FC(F)(F)c1cccc(-c2csc(N=C3CCCCN3)n2)c1 [compound 105, N-[(2E/Z)-piperidin-2-ylidene]-4-[3-(trifluoromethyl)phenyl]-1,3-thiazole-2-amine]	1.75**	–	–	–	–	–
Fc1ccc(-c2csc(N=C3CCCCN3)n2)cc1Cl [compound 30, 4-(3-chloro-4-fluorophenyl)-N-[(2E/Z)-piperidin-2-ylidene]-1,3-thiazole-2-amine]	1.76	3.45	1.76	–	–	–
COc1ccc(-c2ccccc2-c2csc(N=C3CCCCN3)n2)cc1 [compound 67, 4-(4′-methoxybiphenyl-2-yl)-N-[(2E/Z)-piperidin-2-ylidene]-1,3-thiazole-2-amine]	1.83**	–	–	–	–	–
Cc1cccc(-c2csc(N=C3CCCCN3)n2)c1 [compound 60, 4-(3-methylphenyl)-N-[(2E/Z)-piperidin-2-ylidene]-1,3-thiazole-2-amine]	–	–	1.32*	–	–	–
